# ChEMBL document CHEMBL1201862, “PubChem BioAssay data set” (2004)
#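 48-hour exposure; five concentrations; linearly interpolated endpoints. At the GI50, growth is halved.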 Active and inactive are the calls of the source. No stated cut-off is given here; in the data, active = GI50 up to about 1.1 µM and inactive = higher.
# What was measured:
# Assay in all cases: growth of human tumour cells (NCI), 48 h
# [1] = test system: CCRF-CEM
# [2] = test system: HCT-116
# [3] = test system: IGROV-1
# [4] = test system: K562
# [5] = test system: M14
# [6] = test system: MCF7
# [7] = test system: Malme-3M
# [8] = test system: NCI-H23
# [9] = test system: NCI-H522
# [10] = test system: PC-3
# [11] = test system: RXF 393
# [12] = test system: SF-295
# [13] = test system: SF-539
# [14] = test system: SK-MEL-28
# [15] = test system: SR
# [16] = test system: SW-620
# [17] = test system: TK-10
# [18] = test system: UACC-257
# [19] = test system: UO-31
# [20] = test system: SK-MEL-5
SMILES,GI50 [1],GI50 [2],GI50 [3],GI50 [4],GI50 [5],GI50 [6],GI50 [7],GI50 [8],GI50 [9],GI50 [10],GI50 [11],GI50 [12],GI50 [13],GI50 [14],GI50 [15],GI50 [16],GI50 [17],GI50 [18],GI50 [19],GI50 [20]
O=C(COc1ccc(OCC(=O)NNC2=NC(c3cc(F)c(Cl)cc3Cl)CS2)c(Cl)c1)NNC1=NC(c2cc(F)c(Cl)cc2Cl)CS1 (configuration not stated),28.6 µM (inactive),31.5 µM (inactive),20.1 µM (inactive),24 µM (inactive),74 µM (inactive),14 µM (inactive),> 100 µM (inactive),20.2 µM (inactive),14.2 µM (inactive),22.1 µM (inactive),19.8 µM (inactive),19.8 µM (inactive),28.6 µM (inactive),29.5 µM (inactive),35.9 µM (inactive),30.6 µM (inactive),25.8 µM (inactive),48 µM (inactive),> 100 µM (inactive),–
O=C(CC(O)c1cccnc1)CC(O)c1cccnc1 (configuration not stated),3.02 µM (inactive),2.04 µM (inactive),14.8 µM (inactive),2.75 µM (inactive),14.2 µM (inactive),4.34 µM (inactive),18.4 µM (inactive),22.5 µM (inactive),13.4 µM (inactive),15.8 µM (inactive),16.7 µM (inactive),15.4 µM (inactive),21.2 µM (inactive),19.5 µM (inactive),2.78 µM (inactive),4.97 µM (inactive),> 55.1 µM (inactive),18.1 µM (inactive),17.4 µM (inactive),16.1 µM (inactive)
CC(C)/C(Cl)=N\OC(=O)Nc1ccc(C#N)cc1,1.05 µM (active),5 µM (inactive),17.6 µM (inactive),2 µM (inactive),3.01 µM (inactive),9.04 µM (inactive),2.62 µM (inactive),15.2 µM (inactive),1.75 µM (inactive),16.5 µM (inactive),1.85 µM (inactive),19 µM (inactive),15.9 µM (inactive),12.1 µM (inactive),2.17 µM (inactive),1.81 µM (inactive),5.35 µM (inactive),12.3 µM (inactive),9.02 µM (inactive),5.11 µM (inactive)
CC1(CO)OC(n2cnc3cncnc32)CC1O (configuration not stated),> 100 µM (inactive),> 100 µM (inactive),> 100 µM (inactive),> 100 µM (inactive),> 100 µM (inactive),> 100 µM (inactive),> 100 µM (inactive),> 100 µM (inactive),> 100 µM (inactive),> 100 µM (inactive),> 100 µM (inactive),> 100 µM (inactive),> 100 µM (inactive),> 100 µM (inactive),> 100 µM (inactive),> 100 µM (inactive),> 100 µM (inactive),> 100 µM (inactive),> 100 µM (inactive),> 100 µM (inactive)
COc1cc2cc(C(=O)N3C[C@@H](CCl)c4c3cc(N)c3ccccc43)[nH]c2c(OC)c1OC,0.000644 µM (active),0.000301 µM (active),0.00611 µM (active),0.00327 µM (active),0.00104 µM (active),0.00145 µM (active),< 0.01 µM (active),0.0138 µM (active),0.00283 µM (active),0.00102 µM (active),0.00157 µM (active),< 0.01 µM (active),0.00213 µM (active),< 0.01 µM (active),0.000455 µM (active),0.00201 µM (active),< 0.01 µM (active),0.237 µM (active),0.00622 µM (active),< 0.01 µM (active)
CN1CCC2(CC1)SC[C@H]1C(=O)N(c3ccc(Cl)cc3)C(=O)N12,> 100 µM (inactive),> 100 µM (inactive),> 100 µM (inactive),45.2 µM (inactive),> 100 µM (inactive),> 100 µM (inactive),> 100 µM (inactive),> 100 µM (inactive),> 100 µM (inactive),> 100 µM (inactive),> 100 µM (inactive),> 100 µM (inactive),> 100 µM (inactive),> 100 µM (inactive),> 100 µM (inactive),> 100 µM (inactive),> 100 µM (inactive),> 100 µM (inactive),> 100 µM (inactive),> 100 µM (inactive)
Cc1ccc(/C=C/C(=O)c2cc(CN(C)C)c(O)c(CN(C)C)c2)cc1,14.4 µM (inactive),15.5 µM (inactive),27.4 µM (inactive),13.8 µM (inactive),15.8 µM (inactive),17.3 µM (inactive),18.3 µM (inactive),29 µM (inactive),14.8 µM (inactive),13.5 µM (inactive),18.7 µM (inactive),13.8 µM (inactive),16.6 µM (inactive),17.6 µM (inactive),18.2 µM (inactive),16.1 µM (inactive),28.8 µM (inactive),13.8 µM (inactive),15.7 µM (inactive),14.7 µM (inactive)
N=C(N)N/N=C/c1c(-c2ccc(Cl)c([N+](=O)[O-])c2)nc2sc(Cl)cn12,0.565 µM (active),3.38 µM (inactive),1.65 µM (inactive),0.617 µM (active),2.79 µM (inactive),2.39 µM (inactive),2.84 µM (inactive),3.68 µM (inactive),1.51 µM (inactive),1.88 µM (inactive),1.77 µM (inactive),2.2 µM (inactive),2.3 µM (inactive),1.94 µM (inactive),1.44 µM (inactive),2.2 µM (inactive),28.8 µM (inactive),1.91 µM (inactive),1.84 µM (inactive),4.07 µM (inactive)
CCOC(=O)c1cc(-c2ccc(OC)c(OC)c2)cn1C,> 10 µM (inactive),> 10 µM (inactive),> 10 µM (inactive),> 10 µM (inactive),> 10 µM (inactive),> 10 µM (inactive),> 10 µM (inactive),> 10 µM (inactive),> 10 µM (inactive),> 10 µM (inactive),> 10 µM (inactive),> 10 µM (inactive),> 10 µM (inactive),> 10 µM (inactive),> 10 µM (inactive),–,> 10 µM (inactive),> 10 µM (inactive),> 10 µM (inactive),> 10 µM (inactive)
COC1(OC)C2(Cl)C(Cl)=C(Cl)C1(Cl)C1COCC12 (configuration not stated),> 100 µM (inactive),–,> 100 µM (inactive),> 88.5 µM (inactive),> 100 µM (inactive),> 100 µM (inactive),> 100 µM (inactive),> 45 µM (inactive),> 100 µM (inactive),> 100 µM (inactive),> 100 µM (inactive),> 100 µM (inactive),> 100 µM (inactive),> 38.7 µM (inactive),> 75.3 µM (inactive),> 100 µM (inactive),> 40.7 µM (inactive),> 100 µM (inactive),> 100 µM (inactive),> 100 µM (inactive)
COc1cc(/C=C2\C[C@H]3[C@@H]4CCc5cc(O)ccc5[C@H]4CC[C@]3(C)C2=O)cc(OC)c1OC,12.9 µM (inactive),13.4 µM (inactive),15.3 µM (inactive),12.3 µM (inactive),16.8 µM (inactive),52.6 µM (inactive),2.53 µM (inactive),14.4 µM (inactive),1.83 µM (inactive),10.1 µM (inactive),9.57 µM (inactive),12.6 µM (inactive),25.8 µM (inactive),11.8 µM (inactive),3.21 µM (inactive),16.7 µM (inactive),8.81 µM (inactive),10.8 µM (inactive),11.6 µM (inactive),4.31 µM (inactive)
CC12C(=O)OC(=O)C1(C)C1C=CC2O1 (configuration not stated),> 100 µM (inactive),> 100 µM (inactive),> 100 µM (inactive),> 100 µM (inactive),64.9 µM (inactive),> 100 µM (inactive),67.6 µM (inactive),> 100 µM (inactive),> 100 µM (inactive),> 100 µM (inactive),40.6 µM (inactive),62.8 µM (inactive),> 100 µM (inactive),> 100 µM (inactive),> 100 µM (inactive),> 100 µM (inactive),78.7 µM (inactive),> 100 µM (inactive),62.1 µM (inactive),66.4 µM (inactive)
CC(=O)Nc1cc2c3c(c1)CCCN3CCC2,> 100 µM (inactive),> 100 µM (inactive),> 100 µM (inactive),> 100 µM (inactive),> 100 µM (inactive),> 100 µM (inactive),> 100 µM (inactive),> 100 µM (inactive),> 100 µM (inactive),> 100 µM (inactive),> 100 µM (inactive),> 100 µM (inactive),> 100 µM (inactive),> 100 µM (inactive),> 100 µM (inactive),> 100 µM (inactive),> 100 µM (inactive),> 100 µM (inactive),> 100 µM (inactive),> 100 µM (inactive)
COc1ccc(NC(C)=O)cc1N1C(=O)/C(=C\c2cc(OC)c(OC)c(OC)c2)S(=O)(=O)C1c1ccccc1 (configuration not stated),29.3 µM (inactive),29.3 µM (inactive),98.4 µM (inactive),28.5 µM (inactive),69.5 µM (inactive),33 µM (inactive),78.3 µM (inactive),71.4 µM (inactive),45.5 µM (inactive),39.3 µM (inactive),74.6 µM (inactive),55 µM (inactive),> 100 µM (inactive),39.3 µM (inactive),33 µM (inactive),50.4 µM (inactive),> 100 µM (inactive),89.5 µM (inactive),38.7 µM (inactive),44.8 µM (inactive)
